One experiment has as its system HER2. The experiment is described as follows: HER2 whole cell kinase ELISA (first HER2 column of Table 1). The class given is cell-based. As to conditions: cell line not given. An excerpt: (§1) The following examples illustrates the ability of the exemplary compounds to inhibit receptor tyrosine kinases, such as HER2 and/or EGFR. The following target cells were used for cellular kinase assays: NIH3T3 clone C7 (Honegger et al., supra) engineered to over-express human EGF receptor; NIH3T3 cells engineered to over-express a chimeric receptor containing the EGFR extracellular domain and the HER2 intracellular kinase domain; the human mammary carcinoma line BT474 (ATCC HTB2) expressing HER2; and the human glioblastoma line U1242 that expresses PDGFR-beta. Growth assays were carried out using human mammary epithelial SKBR3 (ATCC HTB30) cells (SKBR3 cells over-express HER2), SKOV3 (AT(D(D HTB77) human ovarian cancer cell line (SKOV3 cells also over-express HER2), A431 cells (A431 cells over-express EGFR) MCF7 human breast carcinoma cells, MCF7 cells overexpressing the HER2 kinase (MCF7-HER2), NIH3T3 cells, and NIH3T3 cells overexpressing the HER2 kinase (3T3-HER2.
EGFR-HER2 Chimeric Recetor
HER2 kinase activity (EGFR-3T3) in whole cells was measured as described below:
The materials and regeants are identical to these used in example 1, the EGFR whole cell kinase assay.
A. Coat ELISA plates (Corning, 96 well, Cat. #25805-96) with 05-101 antibody at 0.5 µg per well in PBS, 100 μl final volume/well, and store overnight at 4.sunburst. C. Coated plates are good for up to 10 days when stored at 4° C.
B. On day of use, remove coating buffer and replace with 100 μl blocking buffer (5% Carnation Instant Non-Fat Dry Milk in PBS). Incubate the plate, shaking, at room temperature (about 23.sunburst. C. to 25.sunburst. C.) for 30 minutes. Just prior to use, remove blocking buffer and wash plate 4 times with TBST buffer.
A. An NIH3T3 cell line overexpressing a chimeric receptor containing the EGFR extracellular domain and extracellular HER2 kinase domain can be used for this assay.
B. Choose dishes having 80-90% confluence for the experiment. Trypsinize cells and stop reaction by adding 10% fetal bovine serum. Suspend cells in DMEM medium (10% CS DMEM medium) and centrifuge once at 1500 rpm, at room temperature for 5 minutes.
C. Resuspend cells in seeding medium (DMEM, 0.5% bovine serum), and count the cells using trypan blue. Viability above 90% is acceptable. Seed cells in DMEM medium (0.5% bovine serum) at a density of 10,000 cells per well, 100 μl per well, in a 96 well microtiter plate. Incubate seeded cells in 5% CO2 at 37.sunburst. C. for about 40 hours.
A. Check seeded cells for contamination using an inverted microscope. Dilute drug stock (10 mg/ml in DMSO) 1:10 in DMEM medium, then transfer 5 l to a […] well for a final drug dilution of 1:200 and a final DMSO concentration of 1%. Control wells receive DMSO alone. Incubate in 5% CO2 at 37° C. for two hours.
B. Prepare EGF ligand: dilute stock EGF in DMEM so that upon transfer of 10 μl dilute EGF (1:12 dilution), 100 nM final concentration is attained.
D. After 120 minutes incubation with drug, add prepared […] ligand to cells, 10 μl per well, to a final concentration of 100 nM. Control wells receive DMEM alone. Incubate, shaking, at room temperature, for 5 minutes.
E. Remove drug, EGF, and DMEM. Wash cells twice with PBS. Transfer HNTG* to cells, 100 μl per well. Place on ice for 5 minutes. Meanwhile, remove blocking buffer from other ELISA plate and wash with TBST as described above.
F. With a pipette tip securely fitted to a micropipettor, scrape cells from plate and homogenize cell material by repeatedly aspirating and dispensing the HNTG* lysis buffer. Transfer lysate to a coated, blocked, and washed ELISA plate. Incubate shaking at room temperature for one hour.
G. Remove lysate and wash 4 times with TBST. Transfer freshly diluted anti-Ptyr antibody to ELISA plate at 100 μl per well. Incubate shaking at room temperature for 30 minutes in the presence of the anti-Ptyr antiserum (1:3000 dilution in TBST).
H. Remove the anti-Ptyr antibody and wash 4 times with TBST. […]
(In an ELISA, binding on a coated surface is turned into a signal by an enzyme label.)

For the next experiment, the target named is T1, PDGFR (Homo sapiens, UniProt P09619).
T1 construct: endogenous in cells; host or cells: U1242 MG human glioblastoma cells
T1 sequence (P09619 33-1106): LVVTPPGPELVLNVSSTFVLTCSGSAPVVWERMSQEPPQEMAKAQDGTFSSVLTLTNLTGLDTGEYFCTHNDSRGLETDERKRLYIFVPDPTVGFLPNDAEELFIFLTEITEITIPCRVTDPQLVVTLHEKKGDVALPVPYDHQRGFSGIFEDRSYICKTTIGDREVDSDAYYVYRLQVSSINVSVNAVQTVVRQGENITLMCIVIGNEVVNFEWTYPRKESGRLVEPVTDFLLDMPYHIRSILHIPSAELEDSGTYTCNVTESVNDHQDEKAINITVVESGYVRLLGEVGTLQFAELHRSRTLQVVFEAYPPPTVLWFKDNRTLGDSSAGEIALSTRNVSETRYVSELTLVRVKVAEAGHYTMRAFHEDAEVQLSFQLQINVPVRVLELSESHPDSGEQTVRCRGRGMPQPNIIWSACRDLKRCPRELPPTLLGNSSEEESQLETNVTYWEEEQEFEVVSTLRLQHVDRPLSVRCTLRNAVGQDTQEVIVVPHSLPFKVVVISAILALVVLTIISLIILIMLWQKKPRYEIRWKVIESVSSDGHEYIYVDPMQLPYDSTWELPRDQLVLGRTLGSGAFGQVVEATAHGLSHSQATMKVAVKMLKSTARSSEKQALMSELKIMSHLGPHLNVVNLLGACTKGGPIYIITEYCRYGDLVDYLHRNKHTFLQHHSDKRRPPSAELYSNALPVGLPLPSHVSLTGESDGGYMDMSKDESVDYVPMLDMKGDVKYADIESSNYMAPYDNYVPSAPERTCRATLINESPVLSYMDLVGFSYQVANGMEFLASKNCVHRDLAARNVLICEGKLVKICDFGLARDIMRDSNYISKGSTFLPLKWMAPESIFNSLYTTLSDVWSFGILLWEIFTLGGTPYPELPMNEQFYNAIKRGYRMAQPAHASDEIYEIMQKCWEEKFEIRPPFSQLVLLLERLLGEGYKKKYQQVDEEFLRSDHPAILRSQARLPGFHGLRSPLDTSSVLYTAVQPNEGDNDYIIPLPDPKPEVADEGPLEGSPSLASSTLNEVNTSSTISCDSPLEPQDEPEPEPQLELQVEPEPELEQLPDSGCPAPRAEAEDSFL
The experiment is described as follows: PDGF-R Cellular Assay (ELISA). The class given is cell-based. As to conditions: U1242 human glioblastoma cells.
From the text: as §1
The PDGF cellular kinase assay was carried out as follows: cells are lysed in 0.2M Hepes, 0.15M NaCl, 10% VN glycerol, 0.04% Triton X-100, 5 mM EDTA, 5 mM Na+ vanadate and 2 mM Na+ pyrophosphate; cell lysates are then added to an ELISA plate coated with an anti-PDGF receptor antibody (Genzyme); ELISA plates are coated at 0.5 μg of antibody/well in 150 μl of PBS for 18 hours at 4° C. prior to the addition of the lysate; the lysate is incubated in the coated plates for 1 hour and then washed four times in TBST (35 mM Tris-HCl pH 7.0, 0.15M NaCl, 0.1% Triton X100); anti-phosphotyrosine antibody (100 μl in PBS) is added and the mixture is incubated for 30 minutes at room temperature; the wells were then washed four times in TBST, a secondary antibody conjugated to POD (TAGO) is added to each well, and the treated well are incubated for 30 minutes at room temperature; the wells are then washed four times in TBST, ABTS/H2 O2 solution is added to each well and the wells are incubated for two minutes; absorbance is then measured at 410 nm.
U1242 MG cells were plated in 96-well plates at a concentration of 5×10^4 cells/well in cultured media containing 0.5% FBS. The cells were incubated for 24 hours. The cells were then treated with a particular compound for 2 hours followed by the addition of 100 ng/ml PDGF-BB and incubation for 10 minutes.
Cells were lysed in 0.2M Hepes, 0.15M NaCl, 10% VN glycerol, 0.04% Triton X-100, 5 mM EDTA, 5 mM Na^+ vanadate and 2 mM Na^+ pyrophosphate. Cell lysates were then added to an ELISA plate coated with an anti-PDGF receptor antibody (Genzyme). ELISA plates were coated at 0.5 μg of antibody/well in 150 μl of PBS for 18 hours at 4° C. prior to the addition of the lysate.
The lysate was incubated in the coated plates for 1 hour and then washed four times in TBST (35 mM Tris-HCl pH 7.0, 0.15M NaCl, 0.1% Triton X-100). Anti-phosphotyrosine antibody (100 μl in PBS) was added and the mixture was incubated for 30 minutes at room temperature. The wells were then washed four times in TBST, a secondary antibody conjugated to POD (TAGO) was added to each well, and the treated well were incubated for 30 minutes at room temperature. The wells were then washed four times in TBST, ABTS/H2 O2 solution was added to each well and the wells were incubated for two minutes. Absorbance was then measured at 410 nm.

Here are results for 17 compounds from patent US5650415A, “Quinoline compounds” (Sugen, Inc., priority 1995, dated 1997).

The structures appear in SMILES notation.

In turn, `CCOC(=O)c1cnc2ccc(C(F)(F)F)cc2c1Nc1ccc(OC)c(OC)c1` [Compound A726, 3-Ethoxycarbonyl-4-(3,4-dimethoxyphenylamino)-6-trifluoromethylquinoline] returned an IC50 in the experiment with HER2 greater than 100 µM. `CCOC(=O)c1cnc2ccc(C(F)(F)F)cc2c1Nc1ccccc1C#N` [Compound A723, 4-(2-Cyanophenylamino)-3-ethoxycarbonyl-6-trifluoromethylquinoline] displayed an IC50 with HER2 greater than 100 µM. For the compound `CCOC(=O)c1cnc2c(F)cc(F)cc2c1Sc1ccc(Cl)cc1` [Compound A730, 4-(4-Chlorophenylmercapto)-6,8-difluoro-3-ethoxycarbonylquinoline], the IC50 at PDGFR was greater than 50 µM; in the experiment with HER2, greater than 100 µM.

With `CCOC(=O)c1cnc2ccc(C(F)(F)F)cc2c1Nc1ccc(Cl)cc1` [Compound A729, 4-(4-Chlorophenylamino)-3-ethoxycarbonyl-6-trifluoromethylquinoline], in the experiment with HER2, the IC50 was greater than 100 µM. As for `CCOC(=O)c1cnc2ccc(C(F)(F)F)cc2c1NCc1cccc(C(F)(F)F)c1` [Compound A718, 3-Ethoxycarbonyl-4-(3-trifluoromethylbenzylamino)-6-trifluoromethylquinoline], the IC50 in the experiment with HER2 is greater than 100 µM. On the same count and under the same terms, then `CCOC(=O)c1cnc2ccc(C(F)(F)F)cc2c1Nc1cccc(Cl)c1` [Compound A728, 4-(3-Chlorophenylamino)-3-ethoxycarbonyl-6-trifluoromethylquinoline], with greater than 100 µM. As for `CCOC(=O)c1cnc2c(F)ccc(F)c2c1Sc1ccc(Cl)cc1` [Compound A732, 4-(4-Chlorophenylmercapto)-5,8-difluoro-3-ethoxycarbonylquinoline], the IC50 at PDGFR is greater than 50 µM; in the experiment with HER2, 50 µM. Regarding `CCOC(=O)c1cnc2ccc(C(F)(F)F)cc2c1Nc1ccc(Br)cc1` [Compound A727, 4-(4-Bromophenylamino)-3-ethoxycarbonyl-6-trifluoromethylquinoline], the IC50 in the experiment on HER2 is greater than 100 µM. As for `CCOC(=O)c1cnc2cc(Cl)c(F)cc2c1Sc1ccc(Cl)cc1` [Compound A731, 7-Chloro-4-(4-chlorophenylmercapto)-6-fluoro-3-ethoxycarbonylquinoline], the IC50 on PDGFR was greater than 50 µM; with HER2, greater than 100 µM. In the case of `CCOC(=O)c1cnc2ccc(C(F)(F)F)cc2c1NCc1ccc(C(F)(F)F)cc1` [Compound A719, 3-Ethoxycarbonyl-4-(4-trifluoromethylbenzylamino)-6-trifluoromethylquinoline], in the experiment on HER2, the IC50 is greater than 100 µM. `CCOC(=O)c1cnc2ccc(C(F)(F)F)cc2c1Nc1ccccc1C(F)(F)F` [Compound A720, 3-Ethoxycarbonyl-4-(2-trifluoromethylphenylamino)-6-trifluoromethylquinoline]: the IC50 in the experiment on HER2 was greater than 100 µM. `CCOC(=O)c1cnc2c(F)ccc(F)c2c1Sc1cccc(C(F)(F)F)c1` [Compound A713, 3-Ethoxycarbonyl-5,8-difluoro-4-(3-trifluoromethylphenylmercapto)quinoline]: the IC50 on PDGFR is greater than 50 µM; in the experiment on HER2 it was 7.9 µM. Turning to `CCOC(=O)c1cnc2ccc(C(F)(F)F)cc2c1Nc1cccc(Br)c1` [Compound A716, 4-(3-Bromophenylamino)-3-ethoxycarbonyl-6-trifluoromethylquinoline], the IC50 on PDGFR was greater than 100 µM. Regarding `CCOC(=O)c1cnc2ccc(C(F)(F)F)cc2c1NCc1ccccc1C(F)(F)F` [Compound A717, 3-Ethoxycarbonyl-4-(2-trifluoromethylbenzylamino)-6-trifluoromethylquinoline], the IC50 with HER2 was greater than 100 µM. On PDGFR, `CCOC(=O)c1cnc2ccc(C(F)(F)F)cc2c1Nc1ccc(C(F)(F)F)cc1` [Compound A722, 3-Ethoxycarbonyl-4-(4-trifluoromethylphenylamino)-6-trifluoromethylquinoline] showed an IC50 greater than 100 µM. `CCOC(=O)c1cnc2ccc(C(F)(F)F)cc2c1Nc1ccc(C#N)cc1` [Compound A725, 4-(4-Cyanophenylamino)-3-ethoxycarbonyl-6-trifluoromethylquinoline] registered an IC50 in the experiment on HER2 greater than 100 µM.

Consider `CCOC(=O)c1cnc2ccc(C(F)(F)F)cc2c1Nc1cccc(C(F)(F)F)c1` [Compound A721, 3-Ethoxycarbonyl-4-(3-trifluoromethylphenylamino)-6-trifluoromethylquinoline], for which the IC50 against PDGFR was greater than 100 µM.

Broadly, the IC50 is the midpoint of a concentration-inhibition curve. Low values mean higher potency, high ones lower potency.
